Values after ≈ are worked out from the molar mass of the structure shown. Positions of bridges follow the written chain, without caps; N, C: chain ends. Residues, ends and D or L forms follow the SMILES beside them.

Assay [1] concerns S. aureus ATCC 25923. Briefly: MIC and MBC determination (CLSI broth microdilution). The assay is classed as cell-based. Conditions: Staphylococcus aureus; for MIC: ATCC25923, 1 × 10^5 CFU/mL, 16–18 h, 37 °C; for MBC: ATCC25923, lowest concentration giving 99.9% died bacteria. The method, then: (§1) Minimal Inhibitory Concentration (MIC), Minimal Bactericidal Concentration (MBC) and Mutant Prevention Concentration (MPC).
(§2) The MIC and MBC values of NZX against the test S. aureus strain were determined according to Clinical Laboratory Standards Institute (Watts et al. [2013]). Briefly, a volume of 10 μL diluted NZX with final concentration (1.25–1280 μg/mL) and 90 μL of mid-log phase S. aureus cells (1 × 10^5 CFU/mL) were added into a 96-well plate and co-incubated for 16–18 h at 37 °C. MIC value was defined as the lowest concentration of NZX at which no visible bacterial growth was observed. In addition, the bacteria suspensions were plated on Mueller–Hinton agar (MHA) medium to count, and the lowest concentration of NZX that results in 99.9% of died bacteria was the MBC value.
(In broth dilution the organism is exposed to a series of concentrations in liquid medium.)

Assay [2] deals with S. aureus ATCC 43300. The description is as above. Type of assay: cell-based. Conditions: Staphylococcus aureus; for MIC: ATCC43300, 1 × 10^5 CFU/mL, 16–18 h, 37 °C; for MBC: ATCC43300, lowest concentration giving 99.9% died bacteria. As to the method: as §1, §2
The subject of assay [3] is S. aureus E48. The description is as above. The assay is classed as cell-based. Conditions: Staphylococcus aureus; for MIC: 1 × 10^5 CFU/mL, 16–18 h, 37 °C; for MBC: lowest concentration giving 99.9% died bacteria. The method, then: as §1, §2
Assay [4] deals with S. aureus ATCC 25923. Briefly: In vitro dose-killing curves (24 h). The assay is classed as cell-based, Staphylococcus aureus. The following applies: for EC50: Staphylococcus aureus, ATCC25923, 50% reduction in Log10 CFU at 24 h between minimum and maximum; for Cs: concentration causing no apparent growth in Log10 CFU at 24 h vs initial inoculum. As to the method: (§3) The in vitro dose-killing curves of NZX against the test S. aureus strains were conducted as previous described (Brinch et al. [2010]), with some modification. The S. aureus cells in mid-log phage were diluted. Then, the killing curves of NZX against S. aureus strains were carried out in the 48-well plate. Specifically, a volume of 50 μL NZX (0.6–150 μM) was mixed with 450 μL of the above diluted bacterial suspension (5 × 10^5 CFU/mL), and the mixtures were incubated in the Micro Oscillator for 24 h (600 rpm, 37 °C). Subsequently, the bacteria suspensions were plated on MHA medium to count. Lincomycin and ceftiofur were set as antibiotic controls, respectively. PBS was negative control. Results were expressed as the average of three independent experiments data.

Assay [5] has as its system S. aureus E48. In words: In vitro dose-killing curves (24 h). The following applies: for EC50: Staphylococcus aureus, 50% reduction in Log10 CFU at 24 h between minimum and maximum; for Cs: concentration causing no apparent growth in Log10 CFU at 24 h vs initial inoculum. The assay is classed as cell-based, Staphylococcus aureus. As to the method: as §3
In assay [6] the test system is S. aureus ATCC 43300. In words: Post antibiotic effect (PAE). Type of assay: cell-based, Staphylococcus aureus. Conditions: 2 h exposure at 1 × to 8 × MIC, 1 × 10^8 CFU/mL, triplicate. The method, then: PAE was performed based on the method of Zhang et al. (Zhang et al. [2014]). S. aureus E48, S. aureus ATCC 25923 and S. aureus ATCC 43300 were cultured at 37 °C in MHB medium to the log-phase. Then, the diluted cells (1 × 10^8 CFU/mL) were exposed to NZX with final concentration of 1 × , 2 × , 4 × and 8 × MIC in the 48-well plates for 2 h at 37 °C. After incubation, NZX were removed by diluting 1:1000 with MHB medium. Viable counts were determined immediately after drug reconstruction and at 1–2 h interval for at least 10 h. PAE determination was calculated as PAE (h) = T-C, where T is the time (h) that required to increase by tenfold for the drug-treated viable count from the moment of drug reconstruction and C is the time (h) required to increase by tenfold for cell density without treatment. The experiments were conducted in triplication.

For assay [7], the system named is S. aureus ATCC 43300. Briefly: Cell membrane permeability, PI staining by flow cytometry. The assay is classed as cell-based, Staphylococcus aureus. As to the method:
Flow cytometry was used for the analysis of the effects of NZX on the penetration rate of the S. aureus cell membrane (Yang et al. [2019]). The S. aureus cells in mid-log phase were adjusted to 1 × 10^8 CFU/mL and the bacteria suspensions were treated with 1 × , 2 × and 4 × MIC of NZX for 2 h at 37 °C. In addition, the cell suspensions were incubated with 2 × MIC of NZX for 0 h, 0.5 h, 1 h and 2 h, respectively. After incubation, the cells were centrifuged at 4000 rpm at 4 °C for 5 min, washed twice with sterile PBS, and pellets were resuspended in 1 mL of PBS. Next, cells were stained with 50 µg/mL propidium iodide (PI) for 30 min in the dark at room temperature, and the proportion of cells with PI positive cells to the total cells were analyzed by flow-cytometry (BD, USA). Lincomycin and ceftiofur were used as positive controls and PBS as negative control. Three replicates for each treatment were conducted.
A general note: In flow cytometry, cells or beads pass a laser one at a time.

Where [8] appears, read: 2 × MIC, range over 0, 0.5, 1 and 2 h.
[9] abbreviates: 2 h, range over 1 × MIC, 2 × MIC and 4 × MIC.

In the case of `CO/N=C(\C(=O)N[C@@H]1C(=O)N2C(C(=O)O)=C(CSC(=O)c3ccco3)CS[C@H]12)c1csc(N)n1` [Ceftiofur], the MIC in the assay on S. aureus ATCC 25923 [1], in the assay on S. aureus ATCC 43300 [2] and in the assay with S. aureus E48 [3] was 1.83 µM (≈ 0.958 µg/mL) in each case. Also, the values for the MBC in the assay with S. aureus ATCC 25923 [1], against S. aureus ATCC 43300 [2] and with S. aureus E48 [3] were 3.67 µM (≈ 1.92 µg/mL), 1.83 µM (≈ 0.958 µg/mL) and 3.67 µM (≈ 1.92 µg/mL), respectively. Further, the 50% effective concentration (EC50) with S. aureus ATCC 25923 [4] is 0.71 µM; with S. aureus E48 [5], 1.18 µM. The Cs in the assay on S. aureus ATCC 25923 [4] was found to be 0.77 µM; with S. aureus E48 [5], 1.11 µM. In addition, in the assay on S. aureus ATCC 43300 [6], the “mean PAE range” value was in the range of 0.82 to 1.76 h. For the same compound, the entries for the “percentage of PI-positive cells” value with S. aureus ATCC 43300 [7] (setting [8]) and in the assay on S. aureus ATCC 43300 [7] (setting [9]) were 1.82–24.20% and 15.5–15.8%, respectively.

With `CCC[C@@H]1C[C@@H](C(=O)N[C@@H]([C@H]2O[C@H](SC)[C@H](O)[C@@H](O)[C@H]2O)[C@@H](C)O)N(C)C1` [Lincomycin], the MIC against S. aureus ATCC 25923 [1] was 2.17 µM (≈ 0.882 µg/mL); with S. aureus ATCC 43300 [2], greater than 139 µM; against S. aureus E48 [3] it was 2.17 µM (≈ 0.882 µg/mL). The minimal bactericidal concentration (MBC) in the assay on S. aureus ATCC 25923 [1] is 4.34 µM (≈ 1.76 µg/mL); with S. aureus ATCC 43300 [2], greater than 139 µM; against S. aureus E48 [3], 4.34 µM (≈ 1.76 µg/mL). The half-maximal effective concentration (EC50) was found to be 2.31 µM in the assay on S. aureus ATCC 25923 [4] and 1.47 µM with S. aureus E48 [5]. For the same compound, the Cs in the assay with S. aureus ATCC 25923 [4] came to 2.57 µM; in the assay on S. aureus E48 [5], 1.38 µM.

In the case of `CC[C@H](C)[C@@H]1NC(=O)[C@H](CO)NC(=O)[C@H](CCCCN)NC(=O)[C@@H]2CSSC[C@@H](C(=O)N[C@@H](Cc3ccc(O)cc3)C(=O)O)NC(=O)[C@H](CCCCN)NC(=O)[C@@H]3CSSC[C@H](NC(=O)[C@H](CCC(N)=O)NC(=O)[C@H]([C@@H](C)CC)NC(=O)[C@H](CC(=O)O)NC(=O)[C@H](CC(=O)O)NC(=O)[C@H](CCC(=O)O)NC(=O)[C@H](CO)NC(=O)[C@H](Cc4c[nH]c5ccccc45)NC(=O)[C@@H]4CCCN4C(=O)CNC(=O)[C@H](CC(N)=O)NC(=O)[C@@H](NC(=O)CNC(=O)[C@H](Cc4ccccc4)NC(=O)CN)CSSC[C@H](NC(=O)[C@H](Cc4ccc(O)cc4)NC(=O)CNC(=O)CNC(=O)[C@H](CCCCN)NC(=O)[C@H](Cc4ccc(O)cc4)NC(=O)CNC(=O)[C@H](CCCCN)NC1=O)C(=O)N[C@@H](C)C(=O)N[C@@H](CCCNC(=N)N)C(=O)NCC(=O)NCC(=O)N[C@@H](Cc1ccccc1)C(=O)N[C@@H](C(C)C)C(=O)N3)C(=O)N[C@@H](Cc1c[nH]cn1)C(=O)N[C@@H](CC(N)=O)C(=O)N[C@@H](Cc1c[nH]cn1)C(=O)N2` [NZX] (H-GFGCNGPWSEDDIQCHNHCKSIKGYKGGYCARGGFVCKCY-OH; disulfide 4-30, 15-37, 19-39; N-terminus and C-terminus assumed), the “mean PAE range” value in the assay with S. aureus ATCC 43300 [6] lay in the range of 0.00 to 8.48 h. In addition, the “percentage of PI-positive cells” value was 1.91 to 75.17% in the assay with S. aureus ATCC 43300 [7] (setting [8]) and 57.1–75.1% in the assay on S. aureus ATCC 43300 [7] (setting [9]).

One may read the MIC as the lowest concentration found to suppress growth. Usually MBC stands for the smallest concentration meeting the test's criterion for killing. A low value points to more potent killing. The EC50 is the concentration needed to bring the measured effect to its halfway point. Read a low EC50 as greater potency.
